Experimental data from patent US4812447A, “Method for the treatment of nervous system degeneration” (City of Hope, priority 1986, dated 1989).
Counter-ions that a name gives are not always drawn.

Experiments:
[1] = system: human complement system, C4 component; conditions: Koo, et al., Klin. Wochnschr, 61, 715 (1983); cited from earlier work
[2] = system: astrocytes (GFAP^+ cells); test: Example 3: fetal mouse brain cell culture, GFAP immunofluorescence of astrocytes / glial cells; type: cell-based, Swiss mouse; conditions: for brilliance of astrocyte staining (GFAP per unit cell surface) / extent of astrocyte fiber extension / numbers of astrocytes: vs untreated cultures, GFAP staining; for development and maturation of glial processes: low concentrations, explants of fetal mouse brain in culture
Experimental: (§1) Cultures were prepared from finely chopped, mechanically dissociated brains from 14-day old Swiss mouse embryos. Cells were plated at a density of 3×10^5 cells/cm^2 on poly-D-lysine coated glass cover slips and maintained at 37° C. in an atmosphere of 5% CO2, 80% humidity in Dulbecco-modified ME medium supplemented with 10% fetal calf serum and containing penicillin. The medium was first changed at 5 days of culture, at which time DHEA and DHEAS was added in concentrations ranging from 10^-4 M to 10^-8 M to the experimental cultures, while the control cultures received only normal medium. The supplemented and control media were changed at 7 days and on the 9th day the cultures were fixed and immunostained by the indirect immunofluorescent method of Coons with rabbit antisera to neurofilament protein, specific for neurons, and to glial fibrillary acidic protein, which is specific for glial cells. Neuronal and glial cells identified by the above procedures subsequently will be designated as NF^+ and GFAP^+ cells.
(§2) Briefly, cultures were fixed by successive incubation at room temperature with 3.7% formaldehyde and 3.7% formaldehyde containing 0.2% Triton X-100, 10 min each, and incubation at 4° C. with acetone 50%, with acetone 100% and acetone 50%--2 min each. Incubation with the above-mentioned sera anti-cell markers appropriately diluted (1/20-1/30) was carried out at room temperature for 30 min.

[3] = system: NF^+ neurons; test: Example 3: fetal mouse brain cell culture, neurofilament (NF) immunofluorescence of neurons; type: cell-based, Swiss mouse; conditions: for survival of neurons, outgrowth of neuritic processes, establishment of connections between neurons: low concentrations, explants of fetal mouse brain in culture; for optimal concentration for effects on neurons: numbers, processes, connections and staining of NF^+ neurons
Experimental: as §1, §2

[4] = oral; cited from earlier work
[5] = system: mice; conditions: cited from earlier work
[6] = system: mice; conditions: orally; cited from earlier work
[7] = system: rats; conditions: orally; cited from earlier work
[8] = system: SDAT patients; test: Example 1: treatment of SDAT patients over 75 years old with DHEAS; type: in vivo, human; conditions: 500 mg three times per day for two months
Experimental: Four patients over 75 years old, suffering from SDAT and having well-documented, progressive SDAT symptoms, are selected. Two of the patients are given 500 mg of DHEAS three times per day for two months. The other two are given a placebo.

| SMILES | effect on human complement system, in particular C4 component [1] | brilliance of astrocyte staining (GFAP per unit cell surface) [2] | extent of astrocyte fiber extension [2] | numbers of astrocytes [2] | development and maturation of glial processes [2] | survival of neurons, outgrowth of neuritic processes, establishment of connections between neurons [3] | optimal concentration for effects on neurons [3] | absorption in the gut [4] | incidence of breast cancer [5] | obesity [5] | LD50 [6] | LD50 [7] | further results |
| --- | --- | --- | --- | --- | --- | --- | --- | --- | --- | --- | --- | --- | --- |
| C[C@]12CC[C@H](O)CC1=CC[C@@H]1[C@@H]2CC[C@]2(C)C(=O)CC[C@@H]12 [DHEA, dehydroepiandrosterone] | known to effect the human complement system | remarkable increase | remarkable increase | remarkable increase | enhanced greatly | remarkable effects in enhancing the survival of neurons | 10^-7 M | readily absorbed in the gut | reduce the incidence of breast cancer | reduce obesity | greater than 10,000 mg/kg | greater than 10,000 mg/kg | connections between neurons and between neuronal clusters ([3]; 10^-5 M-10^-8 M): Numerous connections appeared to be formed; neuronal clusters ([3]; 10^-5 M-10^-8 M): greatly enlarged neuronal clusters; processes of NF^+ neurons ([3]; 10^-5 M-10^-8 M): greatly extended, thickened, and intertwined; numbers of NF^+ neurons ([3]; 10^-5 M-10^-8 M, by comparison with controls, fixed on 9th day): remarkable increases; brilliance of fluorescence of neurons and their processes (NF protein content) ([3]; 10^-5 M-10^-8 M, in contrast to dull signal in controls): in marked contrast to the rather dull fluorescent signal observed in the controls; size of NF^+ neurons ([3]; experimental cultures vs controls): larger than those seen in the controls; apparent age after prolonged administration ([5]; prolonged administration): appear to be younger |
| C[C@]12CC[C@H](OS(=O)(=O)O)CC1=CC[C@@H]1[C@@H]2CC[C@]2(C)C(=O)CC[C@@H]12 [DHEAS, dehydroepiandrosterone sulfate] | known to effect the human complement system | remarkable increase | remarkable increase | remarkable increase | enhanced greatly | remarkable effects in enhancing the survival of neurons | 10^-8 M | readily absorbed in the gut | reduce the incidence of breast cancer | reduce obesity | greater than 10,000 mg/kg | greater than 10,000 mg/kg | cognitive ability ([8]; 2 patients vs 2 placebo): significant improvements; memory ([8]; 2 patients vs 2 placebo): significant improvements; speech ([8]; 2 patients vs 2 placebo): significant improvements; signs of further SDAT-type deterioration ([8]; placebo patients show continuing deterioration): No signs of further SDAT-type deterioration; effects on NF^+ neurons compared with those of DHEA ([3]; 10^-4 M to 10^-8 M added): Effects similar to those above |
